According to patent US4363793A, “Diagnostic radiopharmaceuticals for localization in target tissues exhibiting a regional pH shift relative to surrounding tissues” (State University of New York, priority 1980, dated 1982):

Legend:
[1] = Brain imaging study on rhesus monkey (Cleon 710 ECAT scanner); format: in vivo, rhesus monkeys; settings: 5.3 kg monkey, 1 mCi injected, images 15 minutes to 2 hours
Experimental: In addition to the above described organ and tissue distribution studies in rats of the several compounds of the present invention, brain imaging studies were also conducted on rhesus monkeys using a Cleon 710 ECAT scanner.
A 5.3 kg monkey, lightly sedated with Ketalar, was injected with 1 mCi of di-β-(morpholinoethyl)-selenide, (specific activity 1 mCi/mg). Five minutes later the monkey was anaesthetized with pentabarbital. A series of tomographic images was taken at roughly 1/2" intervals starting at the vertex. The first image was started 15 minutes after injection and various images were recorded up to 2 hours after injection. Each image contained approximately one million counts. At the conclusion of the imaging experiment, the monkey was killed and the brain was assayed in the dose calibrator used for measuring the injected dose. No correction was applied for the change in geometry between the syringe and the monkey brain. The weight of the brain was 84 g.

[2] = Organ distribution of Se-75 labeled compound in rats after intravenous injection; format: in vivo, Spraque-Dawley male rats; settings: rat; for penetration of the blood brain barrier (in words) / % dose/organ, heart / % dose/organ, kidney / % dose/organ, liver / % dose/organ, lung(2) / % dose/organ, pancreas / % dose/organ, spleen / % dose/organ, brain (brain uptake) / % dose/organ, blood / % dose/organ, muscle: i.v.; for % dose/organ, blood: blood assumed 7% of body weight; for % dose/organ, muscle: muscle assumed 40% of body weight
From the text: FIGS. 2 and 3 respectively show the relative concentration of Se-75 labeled di-β-(piperidinoethyl)-selenide and di-β-(morpholinoethyl)-selenide in rat brains at several time intervals after an intravenous injection of a dose of the respective compounds into the rat. As is shown in FIG. 3, and also in Table 4, two minutes after an intravenous injection of Se-75 labeled di-β-(morpholinoethyl)-selenide, the brain uptake of the radiopharmaceutical compound reaches a value of 3.19%. […] The terms uptake, % uptake or % dose are used to describe the percentage of the radiopharmaceutical compound contained in a given organ or tissue as compared to the total initial dose. The numerical values in FIGS. 2 and 3 and Tables 3 and 4 represent such percentages.
Studies of distribution of the radiopharmaceutical compounds of the present invention in rats, the results of which are reflected in FIGS. 2 and 3 and Tables 3 and 4, were conducted according to standard practice in the pharmacological sciences, and therefore need not be described here in great detail. Nevertheless, for the sake of complete understanding of the present invention, some experimental details of these studies are briefly described below:
Spraque-Dawley male rats (220-300 g) were injected intravenously (femoral vein) with a 0.2 ml solution (0.5-2 micro Ci) under light ether anaesthesia. At different time periods after the injection, the animals were sacrificed and organs of interest were excised and counted in a well counter. Percent dose was estimated by comparison of tissue counts to suitably diluted aliquots of the injected material. Total activities in blood and muscle were calculated by assuming that they are 7% and 40% of the body weight respectively.

[3] = n-octanol-aqueous medium partition coefficient pH correlation; format: physicochemical; settings: for partition coefficient / lipid solubility at the pH of the blood (in words): pH 7.4, morpholinoethyl vs piperidinoethyl selenide
From the text: The n-octanol-aqueous medium partition coefficients of the compound are readily measured in accordance with standard practice in the prior art. Briefly, such measurements include the steps of dissolving a known amount of the compound in an aqueous buffer of a predetermined pH and extracting the buffer solution with a known amount of n-octanol until an equilibrium of distribution of the compound between the aqueous and n-octanol phases occurs. The concentration of the compound in both phases is then measured by suitable analytical means, such as ultraviolet spectrophotometry; the partition coefficient being the ratio of the two measured concentrations.
For the purposes of evaluating a plurality of radioactive compounds for use in the novel method of the present invention, the n-octanol-aqueous medium partition coefficients of the compounds were measured in the following manner. The radioactive compound was mixed with 1.0 ml of n-octanol and 1.0 ml of buffer of the desired predetermined pH. The radioactivity of this mixture was counted, and the mixture was placed in a water bath shaker at 37° C. for 2 hours. After centrifugation at 3,000 rpm for 5 minutes, the n-octanol layer was separated and its radioactivity counted. The partition coefficient of the compound was calculated by the following equation: [formula]

[4] = cited from earlier work
[5] = 2 min (morpholinoethyl: average of 5 samples)

## C1CN(CC[75Se]CCN2CCOCC2)CCO1 [di-β-(morpholinoethyl)-selenide]
[1]
  distribution in monkey brain (in words): resembles the distribution observed for F-18 2-fluoro-2-deoxyglucose or for N-13 labeled ammonia, with a higher uptake of the radiopharmaceutical compound in gray matter of the brain than in white matter
[2]; after intravenous injection
  decrease of brain content (% dose) (in words): decreases much more rapidly after the intravenous injection than that of di-β-(piperidinoethyl)-selenide
[2]
  penetration of the blood brain barrier (in words): capable of penetrating the blood brain barrier
[2]; 2 min
  % dose/organ, heart: 0.45%
  % dose/organ, kidney: 9.89%
  % dose/organ, liver: 18.3%
  % dose/organ, lung(2): 2.77%
  % dose/organ, pancreas: 0.88%
  % dose/organ, spleen: 0.68%
  % dose/organ, blood: 3.13%
  % dose/organ, muscle: 10.5%
[2]; [5]
  % dose/organ, brain (brain uptake): 3.19%
[2]; 5 min
  % dose/organ, brain (brain uptake): 2.80%
  % dose/organ, kidney: 7.46%
  % dose/organ, liver: 19.7%
  % dose/organ, spleen: 0.87%
  % dose/organ, blood: 2.72%
  % dose/organ, muscle: 15.0%
[2]; 15 min (average of 6 rats)
  % dose/organ, brain (brain uptake): 2.23%
  % dose/organ, kidney: 4.04%
  % dose/organ, liver: 22.1%
  % dose/organ, spleen: 1.23%
  % dose/organ, blood: 2.26%
  % dose/organ, muscle: 19.4%
[2]; 30 min
  % dose/organ, brain (brain uptake): 1.53%
  % dose/organ, heart: 0.22%
  % dose/organ, kidney: 4.03%
  % dose/organ, liver: 23.3%
  % dose/organ, lung(2): 1.79%
  % dose/organ, pancreas: 0.38%
  % dose/organ, spleen: 1.55%
  % dose/organ, blood: 2.82%
  % dose/organ, muscle: 14.4%
[2]; 1 hr
  % dose/organ, brain (brain uptake): 1.19%
  % dose/organ, kidney: 4.30%
  % dose/organ, liver: 29.9%
  % dose/organ, blood: 2.61%
  % dose/organ, muscle: 13.6%
[2]; 2 hr
  % dose/organ, brain (brain uptake): 0.56%
  % dose/organ, heart: 0.18%
  % dose/organ, kidney: 3.42%
  % dose/organ, liver: 21.7%
  % dose/organ, lung(2): 0.94%
  % dose/organ, pancreas: 0.25%
  % dose/organ, spleen: 0.88%
  % dose/organ, blood: 2.46%
  % dose/organ, muscle: 17.7%
[2]; 6 hr
  % dose/organ, brain (brain uptake): 0.10%
  % dose/organ, kidney: 0.64%
  % dose/organ, liver: 4.38%
  % dose/organ, spleen: 0.19%
  % dose/organ, blood: 0.61%
  % dose/organ, muscle: 3.43%
[2]; 24 hr
  % dose/organ, brain (brain uptake): 0.02%
  % dose/organ, heart: 0.02%
  % dose/organ, kidney: 0.29%
  % dose/organ, liver: 2.15%
  % dose/organ, lung(2): 0.04%
  % dose/organ, pancreas: 0.01%
  % dose/organ, spleen: 0.10%
  % dose/organ, blood: 0.13%
  % dose/organ, muscle: 0.74%
[3]
  partition coefficient / lipid solubility at the pH of the blood (in words): higher partition coefficient at the pH of the blood (7.4) than di-β-(piperidinoethyl)-selenide

## C1CCN(CC[Se]CCN2CCCCC2)CC1 [di-β-(piperidinoethyl)-selenide]
[2]
  penetration of the blood brain barrier (in words): capable of penetrating the blood brain barrier
[2]; 2 min
  % dose/organ, heart: 3.04%
  % dose/organ, kidney: 7.14%
  % dose/organ, liver: 12.0%
  % dose/organ, lung(2): 20.0%
  % dose/organ, pancreas: 0.62%
  % dose/organ, spleen: 0.51%
  % dose/organ, blood: 4.58%
  % dose/organ, muscle: 7.39%
[2]; [5]
  % dose/organ, brain (brain uptake): 1.09%
[2]; 30 min
  % dose/organ, brain (brain uptake): 1.49%
  % dose/organ, heart: 0.89%
  % dose/organ, kidney: 9.21%
  % dose/organ, liver: 14.3%
  % dose/organ, lung(2): 2.83%
  % dose/organ, pancreas: 1.42%
  % dose/organ, spleen: 1.31%
  % dose/organ, blood: 0.87%
  % dose/organ, muscle: 13.4%
[2]; 1 hr
  % dose/organ, brain (brain uptake): 1.53%
  % dose/organ, heart: 0.35%
  % dose/organ, kidney: 4.43%
  % dose/organ, liver: 16.6%
  % dose/organ, lung(2): 1.92%
  % dose/organ, pancreas: 1.07%
  % dose/organ, spleen: 0.90%
  % dose/organ, blood: 0.75%
  % dose/organ, muscle: 16.1%
[2]; 2 hr
  % dose/organ, brain (brain uptake): 1.63%
  % dose/organ, heart: 0.19%
  % dose/organ, kidney: 2.89%
  % dose/organ, liver: 15.9%
  % dose/organ, lung(2): 0.85%
  % dose/organ, pancreas: 0.84%
  % dose/organ, spleen: 1.03%
  % dose/organ, blood: 0.65%
  % dose/organ, muscle: 12.0%
[2]; 4 hr
  % dose/organ, brain (brain uptake): 1.32%
  % dose/organ, heart: 0.16%
  % dose/organ, kidney: 1.53%
  % dose/organ, liver: 16.0%
  % dose/organ, lung(2): 0.82%
  % dose/organ, pancreas: 0.60%
  % dose/organ, spleen: 0.61%
  % dose/organ, blood: 0.59%
  % dose/organ, muscle: 11.9%
[2]; 6 hr
  % dose/organ, brain (brain uptake): 1.18%
  % dose/organ, kidney: 0.64%
  % dose/organ, liver: 7.66%
  % dose/organ, spleen: 0.34%
  % dose/organ, blood: 0.51%
  % dose/organ, muscle: 11.5%
[2]; 24 hr
  % dose/organ, brain (brain uptake): 0.91%
  % dose/organ, heart: 0.03%
  % dose/organ, kidney: 0.38%
  % dose/organ, liver: 4.79%
  % dose/organ, lung(2): 0.31%
  % dose/organ, pancreas: 0.11%
  % dose/organ, spleen: 0.10%
  % dose/organ, blood: 0.20%
  % dose/organ, muscle: 2.81%
[2]; 3 day
  % dose/organ, brain (brain uptake): 0.16%
  % dose/organ, kidney: 0.12%
  % dose/organ, liver: 1.72%
  % dose/organ, spleen: 0.01%
  % dose/organ, blood: 0.08%
  % dose/organ, muscle: 0.40%
[3]; n-octanol-aqueous medium, pH 6.6 to 7.6
  partition coefficient pH dependence (in words): much higher partition coefficient pH dependence
[3]
  partition coefficient / lipid solubility at the pH of the blood (in words): less lipid soluble at the pH of the blood

## Cc1c(I)c(=O)n(-c2ccccc2)n1C [iodoantipyrine]
[4]; in vivo
  penetration of brain tissue (in words): able to penetrate brain tissue
[4]; within one hour after penetration
  retention in brain (in words): almost completely leaves the brain by diffusion
